This passage reports IC50, inhibition in vivo and inhibition results from patent US20050043378A1, “LTA4H modulators” (priority 2003, published 2005).

By pIC50 is commonly meant the negative decadic logarithm of the IC50, by convention in mol/L.

For assay [1], the target named is T1, recombinant human LTA4 hydrolase (rhLTA4H) (Homo sapiens, UniProt P09960).
T1 construct: made in house; host or cells: Spodoptera frugiperda (Sf-9) cells, baculovirus (pFastBac1)
T1 sequence (P09960 1-611): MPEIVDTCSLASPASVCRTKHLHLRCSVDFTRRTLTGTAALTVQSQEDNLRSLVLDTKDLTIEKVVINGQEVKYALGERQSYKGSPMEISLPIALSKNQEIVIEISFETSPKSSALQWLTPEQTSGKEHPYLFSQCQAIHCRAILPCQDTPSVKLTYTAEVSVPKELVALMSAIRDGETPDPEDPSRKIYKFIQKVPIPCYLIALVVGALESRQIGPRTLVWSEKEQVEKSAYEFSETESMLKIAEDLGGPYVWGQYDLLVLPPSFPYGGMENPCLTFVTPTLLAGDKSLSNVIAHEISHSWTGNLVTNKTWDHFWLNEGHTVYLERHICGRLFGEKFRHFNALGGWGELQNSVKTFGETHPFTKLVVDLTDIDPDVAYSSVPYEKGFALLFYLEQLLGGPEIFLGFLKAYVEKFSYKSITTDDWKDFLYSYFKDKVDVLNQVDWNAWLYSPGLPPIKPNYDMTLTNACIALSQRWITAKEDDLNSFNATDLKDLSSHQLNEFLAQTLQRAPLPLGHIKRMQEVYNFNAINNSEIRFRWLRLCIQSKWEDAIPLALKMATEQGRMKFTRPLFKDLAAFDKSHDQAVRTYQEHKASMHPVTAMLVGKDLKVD
Nature of the assay: Recombinant human LTA4 hydrolase assay for LTA4 hydrolase inhibitor activity.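 Also: enzyme expressed in Sf-9 insect cells, compound preincubated 10 min with enzyme, 10 min reaction at room temperature, uninhibited reaction as positive control, enzyme-free blank as negative control.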 The class given is biochemical. The following applies: LTA4 substrate, LTB4 by immunoassay, average of one to three determinations.

Assay [2] deals with LTB4 production by calcium ionophore-stimulated murine blood. Nature of the assay: LTB4 production by calcium ionophore-stimulated murine blood for LTA4H inhibitor activity. It is filed as cell-based, CD-1 mice. The following applies: diluted CD-1 mouse whole blood, A23187 stimulation, LTB4 by immunoassay; read-out: IC50.
Assay [3] has as its system neutrophil influx (myeloperoxidase, MPO). Nature of the assay: Murine arachidonic acid-induced inflammation model: neutrophil influx (myeloperoxidase activity in ear biopsies). The following applies: Mus musculus, 30 mg/kg oral gavage 60 min before topical arachidonic acid to ear, ear biopsies after 3 h, vs animals without inhibitor, read-out: % Inh. MPO. The class given is in vivo, female Balb/c mice.

Assay [4] relates to ex vivo stimulated LTB4 production in blood. Nature of the assay: Murine arachidonic acid-induced inflammation model: ex vivo stimulated LTB4 production. On the set-up: species or system female Balb/c mice. The following applies: Mus musculus; 30 mg/kg oral gavage; blood taken 3 h after arachidonic acid, ex vivo A23187 stimulation; vs animals without inhibitor; read-out: % Inh. LTB4.

pIC50: −log10 of the molar value.

Regarding `CCN(CCCN1CCCC1=O)Cc1ccc(Oc2nc3ccccc3s2)cc1` [Example 437, 1-(3-{[4-(Benzothiazol-2-yloxy)-benzyl]-ethyl-amino}-propyl)-pyrrolidin-2-one], the negative logarithm of the IC50 (pIC50) in assay [1] was 7.68; in assay [2], 6.98. For the compound `OCCC1CCN(Cc2ccc(Oc3nc4ccccc4s3)cc2)CC1` [Example 296, 2-{1-[4-(Benzothiazol-2-yloxy)-benzyl]-piperidin-4-yl}-ethanol], the results for the pIC50 in assay [1] and in assay [2] were 7.48 and 6.88, respectively. For `OC1CCN(CCc2ccc(Oc3nc4ccccc4o3)cc2)CC1` [Example 94, 1-{2-[4-(Benzooxazol-2-yloxy)-phenyl]-ethyl}-piperidin-4-ol] the same measures were 9.00 and 7.14. For `OCC1CCN(CCOc2ccc(Oc3nc4ccccc4[nH]3)cc2)CC1` [Example 133, (1-{2-[4-(1H-Benzoimidazol-2-yloxy)-phenoxy]-ethyl}-piperidin-4-yl)-methanol] the same measures were 6.95 and 6.54.

For `OCC1CCCN(CCc2ccc(Oc3nc4ccccc4s3)cc2)C1` (centres unmarked) [Example 161, (1-{2-[4-(Benzothiazol-2-yloxy)-phenyl]-ethyl}-piperidin-3-yl)-methanol], the pIC50 is 9.00 in assay [1] and 7.00 in assay [2]. `OCC1CCN(CCOc2ccc(Oc3nc4ccccc4o3)cc2)CC1` [Example 13, (1-{2-[4-(Benzooxazol-2-yloxy)-phenoxy]ethyl}-piperidin-4-yl)-methanol]: the pIC50 in assay [2] is 7.39. For the compound `O=C1C[C@H](O)CN1C1CCN(CCOc2ccc(Oc3nc4ccccc4s3)cc2)CC1` [Example 207, (S)-1-(1-{2-[4-(Benzothiazol-2-yloxy)-phenoxy]-ethyl}-piperidin-4-yl)-4-hydroxy-pyrrolidin-2-one], the pIC50 in assay [1] was 7.80; in assay [2], 7.09. On to `OCCCN(CCc1ccc(Oc2nc3ccccc3s2)cc1)C1CC1` [Example 198, 3-({2-[4-(Benzothiazol-2-yloxy)-phenyl]-ethyl}-cyclopropyl-amino)-propan-1-ol], for which, in assay [2], the pIC50 was 7.41. As for `CN(C)CCOc1ccc(Oc2nc3ccccc3o2)cc1` [Example 46, {2-[4-(Benzooxazol-2-yloxy)-phenoxy]-ethyl}-dimethyl-amine], the results for the pIC50 in assay [1] and in assay [2] were 7.77 and 7.54, respectively. For `OC1CCN(CCOc2ccc(Oc3nc4ccccc4[nH]3)cc2)CC1` [Example 134, 1-{2-[4-(1H-Benzoimidazol-2-yloxy)-phenoxy]-ethyl}-piperidin-4-ol] the same measures were 6.96 and 6.36. On to `c1ccc2oc(Oc3ccc(OCCN4CCCCC4)cc3)nc2c1` [Example 11, 2-[4-(2-Piperidin-1-yl-ethoxy)-phenoxy]-benzooxazole], for which the pIC50 in assay [2] was 7.36. Besides, the inhibition in vivo at 30 mg/kg in assay [3] turned out to be 95%. With `O=C1C[C@@H](O)CN1C1CCN(CCc2ccc(Oc3nc4ccccc4s3)cc2)CC1` [Example 334, (R)-1-(1-{2-[4-(Benzothiazol-2-yloxy)-phenyl]-ethyl}-piperidin-4-yl)-4-hydroxy-pyrrolidin-2-one], the pIC50 in assay [1] is 7.00; in assay [2], 6.34. `CCOC(=O)NC1CCN(Cc2ccc(Oc3nc4ccccc4s3)cc2)CC1` [Example 462, {1-[4-(Benzothiazol-2-yloxy)-benzyl]-piperidin-4-yl}-carbamic acid ethyl ester]: the results for the pIC50 in assay [1] and in assay [2] were 7.57 and 6.84, respectively. For `OCCN(CCc1ccc(Oc2nc3ccccc3s2)cc1)CC1CC1` [Example 380, 2-({2-[4-(Benzothiazol-2-yloxy)-phenyl]-ethyl}-cyclopropylmethyl-amino)-ethanol] the same measures were 8.22 and 7.77. For `OCC1CCCN(Cc2ccc(Oc3nc4ccccc4s3)cc2)C1` (centres unmarked) [Example 302, {1-[4-(Benzothiazol-2-yloxy)-benzyl]-piperidin-3-yl}-methanol] the same measures were 7.22 and 6.67. For the compound `O=C(O)C1CCCCN1CCc1ccc(Oc2nc3ccccc3s2)cc1` (centres unmarked) [Example 156, 1-{2-[4-(Benzothiazol-2-yloxy)-phenyl]-ethyl}-piperidine-2-carboxylic acid], the pIC50 is 8.15 in assay [1] and 5.70 in assay [2]. Regarding `NC(=O)C1CCN(Cc2ccc(Oc3nc4ccccc4s3)cc2)CC1` [Example 274, 1-[4-(Benzothiazol-2-yloxy)-benzyl]-piperidine-4-carboxylic acid amide], the inhibition at 30 mg/kg in assay [4] amounted to 93%. In assay [3], the inhibition in vivo at 30 mg/kg is 87%. In the case of `OCCC1CCCCN1Cc1ccc(Oc2nc3ccccc3s2)cc1` (centres unmarked) [Example 288, 2-{1-[4-(Benzothiazol-2-yloxy)-benzyl]-piperidin-2-yl}-ethanol], the pIC50 in assay [1] is 8.40; in assay [2], 7.24. Take `c1ccc2sc(Oc3ccc(OCCN4CCC(N5CCCCC5)CC4)cc3)nc2c1` [Example 80, 1′-{2-[4-(Benzothiazol-2-yloxy)-phenoxy]-ethyl}-[1,4′]bipiperidine]: in assay [1], the negative logarithm of the IC50 (pIC50) is 7.64. On to `O=C(C1CCN(CCOc2ccc(Oc3nc4ccccc4s3)cc2)CC1)N1CCN(CCO)CC1` [Example 195, (1-{2-[4-(Benzothiazol-2-yloxy)-phenoxy]-ethyl}-piperidin-4-yl)-[4-(2-hydroxy-ethyl)-piperazin-1-yl]-methanone], for which, in assay [1], the pIC50 is 7.24. Turning to `OCC1CCCCN1Cc1ccc(Oc2nc3ccccc3s2)cc1` (centres unmarked) [Example 298, {1-[4-(Benzothiazol-2-yloxy)-benzyl]-piperidin-2-yl}-methanol], the pIC50 was 7.82 in assay [1] and 7.16 in assay [2]. Turning to `O=C(O)C1CCN(Cc2ccc(Oc3nc4ccccc4s3)cc2)CC1` [Example 250, 1-[4-(Benzothiazol-2-yloxy)-benzyl]-piperidine-4-carboxylic acid], in assay [4], the inhibition at 30 mg/kg was found to be 80%. Further, in assay [3], the inhibition in vivo at 30 mg/kg is 94%. Regarding `c1ccc2sc(Oc3ccc(OCCN4CCC(c5nnn[nH]5)CC4)cc3)nc2c1` [Example 270, 2-(4-{2-[4-(1H-Tetrazol-5-yl)-piperidin-1-yl]-ethoxy}-phenoxy)-benzothiazole], in assay [1], the pIC50 is 7.80. In the case of `OC1CCN(CCCc2ccc(Oc3nc4ccccc4o3)cc2)CC1` [Example 36, 1-{3-[4-(Benzooxazol-2-yloxy)-phenyl]-propyl}-piperidin-4-ol], in assay [1], the negative-log IC50 (pIC50) is 7.85. As for `OC1(c2ccccc2)CCN(Cc2ccc(Oc3nc4ccccc4s3)cc2)CC1` [Example 358, 1-[4-(Benzothiazol-2-yloxy)-benzyl]-4-phenyl-piperidin-4-ol], in assay [1], the pIC50 was 7.96.

`CCN(CC)CCOc1ccc(Oc2nc3ccccc3o2)cc1` [Example 484, {2-[4-(Benzooxazol-2-yloxy)-phenoxy]-ethyl}-diethyl-amine]: the pIC50 in assay [1] is 7.72; in assay [2] it was 7.96. As for `O=C(Cc1ccccc1)NC1CCN(CCc2ccc(Oc3nc4ccccc4s3)cc2)CC1` [Example 110, N-(1-{2-[4-(Benzothiazol-2-yloxy)-phenyl]-ethyl}-piperidin-4-yl)-2-phenyl-acetamide], in assay [1], the pIC50 is 7.40. With `CC(C)(C)OC(=O)N1CCC(c2nnnn2CCOc2ccc(Oc3nc4ccccc4s3)cc2)CC1` [Example 176, 4-(1-{2-[4-(Benzothiazol-2-yloxy)-phenoxy]-ethyl}-1H-tetrazol-5-yl)-piperidine-1-carboxylic acid tert-butyl ester], the negative logarithm of the IC50 (pIC50) in assay [1] is 7.92. With `O=C(O)CN1CCN(CCOc2ccc(Oc3nc4ccccc4s3)cc2)CC1` [Example 163, (4-{2-[4-(Benzothiazol-2-yloxy)-phenoxy]-ethyl}-piperazin-1-yl)-acetic acid], in assay [1], the pIC50 was 8.05. Regarding `OC1CCN(CCc2ccc(Oc3nc4ccccc4[nH]3)cc2)CC1` [Example 127, 1-{2-[4-(1H-Benzoimidazol-2-yloxy)-phenyl]-ethyl}-piperidin-4-ol], the pIC50 in assay [2] was 6.42. Turning to `O=C1C[C@@H](O)CN1C1CCN(CCOc2ccc(Oc3nc4ccccc4s3)cc2)CC1` [Example 261, (R) 1-(1-{2-[4-(Benzothiazol-2-yloxy)-phenoxy]-ethyl}-piperidin-4-yl)-4-hydroxy-pyrrolidin-2-one], the pIC50 in assay [1] is 7.48; in assay [2] it was 7.09. As to `O=C(O)CC1CCCN(CCc2ccc(Oc3nc4ccccc4s3)cc2)C1` (centres unmarked) [Example 157, (1-{2-[4-(Benzothiazol-2-yloxy)-phenyl]-ethyl}-piperidin-3-yl)-acetic acid], in assay [1], the pIC50 is 9.00. As to `O=C(O)CCCCCN(CCc1ccc(Oc2nc3ccccc3s2)cc1)C1CC1` [Example 419, 6-({2-[4-(Benzothiazol-2-yloxy)-phenyl]-ethyl}-cyclopropyl-amino)-hexanoic acid], the pIC50 in assay [1] was 8.40.
